Each structure is given as a SMILES string. Where two headings read alike, the source gives them in different places.

Assay [1] deals with T1, Class B β-lactamase (X. maltophilia enzyme) (Stenotrophomonas maltophilia, UniProt P52700).
T1 construct: standard procedures from a range of bacteria, including: Xanthomonas maltophilia; endogenous in cells; host or cells: Xanthomonas maltophilia (enzyme purified from the bacterium)
Put plainly: Ki determination, initial rate of hydrolysis of reporter substrate nitrocefin. It counts as biochemical, Xanthomonas maltophilia. As for the experimental part:
(§1) Class B β-lactamases were purified according to published^4 or standard procedures from a range of bacteria, including: Xanthomonas maltophilia, Bacillus cereus, Pseudomonas aeruginosa and Aeromonas hydrophila.
(§2) Assays for inhibition were also carried out according to published procedures^4. Kinetic experiments were typically carried out at 30° C. with 30 mM sodium cacodylate buffer, pH 6.5, containing 0.1 mM ZnCl2.
(§3) The Ki (inhibition constant) values were determined by analysing the initial rate of hydrolysis at different inhibitor concentrations using the following reporter substrates: 30 μm nitrocefin (X. maltophilia enzyme), 200 μM imipenem (A. hydrophila), or 1 mM cephalosporin C (B. cereus and P. aeruginosa enzymes). Data analysis was carried out according to standard kinetic procedures [Felici, A. et al., Biochem. J., 291, 151-155 (1993) and references therein].

Assay [2] concerns the target T2, Class B β-lactamase (P. aeruginosa enzyme) (Pseudomonas aeruginosa, UniProt Q79MP6).
T2 construct: Bacillus cereus, Pseudomonas aeruginosa and Aeromonas hydrophila; endogenous in cells; host or cells: Pseudomonas aeruginosa (enzyme purified from the bacterium)
Put plainly: Ki determination, initial rate of hydrolysis of reporter substrate cephalosporin C. It counts as biochemical. Conditions: competitive inhibition; 1 mM cephalosporin C; 30° C., pH 6.5, 0.1 mM ZnCl2; read-out: Ki (inhibition constant). As for the experimental part:
as §1, §2, §3

The target of assay [3] is T3, Class B β-lactamase (B. cereus enzyme) (Bacillus cereus, UniProt P04190).
T3 construct: from a range of bacteria, including: Xanthomonas maltophilia, Bacillus cereus; endogenous in cells; host or cells: Bacillus cereus (enzyme purified from the bacterium)
Described as above. It counts as biochemical. As for the experimental part: as §1, §2, §3

In assay [4] the target is T4, Class B β-lactamase (A. hydrophila enzyme) (Aeromonas hydrophila, UniProt P26918).
T4 construct: Bacillus cereus, Pseudomonas aeruginosa and Aeromonas hydrophila; endogenous in cells; host or cells: Aeromonas hydrophila (enzyme purified from the bacterium)
Put plainly: Inhibition/inactivation kinetics, reporter substrate imipenem. The following applies: for mode of inhibition of the A. hydrophila enzyme: further kinetic analyses, no reactivation was observed; for Ki: inactivation kinetics, 200 μM imipenem, 30° C., pH 6.5, 0.1 mM ZnCl2, read-out: K = apparent binding constant between the enzyme and substrate. It counts as biochemical. As for the experimental part:
as §1, §2, §3
Compounds 3, 4, 5, 6, 7 and 9 were also shown to be inhibitors of the A. hydrophila enzyme. […] The following kinetic parameters were obtained, where K=apparent binding constant between the enzyme and substrate and k+2 =apparent rate constant for inactivation as in the following scheme: [formula] Kinetic data for compound 3: K=6 μM, k+2 =4.3×10^-2 s^-1

The mark [5] stands for this setting: read-out: Ki (inhibition constant), competitive inhibition, 1 mM cephalosporin C, 30° C., pH 6.5, 0.1 mM ZnCl2.
Where [6] appears, read: competitive inhibition, 1 mM cephalosporin C, 30° C., pH 6.5, 0.1 mM ZnCl2, read-out: Ki (inhibition constant).

T2 sequence (Q79MP6 19-246 limits assumed): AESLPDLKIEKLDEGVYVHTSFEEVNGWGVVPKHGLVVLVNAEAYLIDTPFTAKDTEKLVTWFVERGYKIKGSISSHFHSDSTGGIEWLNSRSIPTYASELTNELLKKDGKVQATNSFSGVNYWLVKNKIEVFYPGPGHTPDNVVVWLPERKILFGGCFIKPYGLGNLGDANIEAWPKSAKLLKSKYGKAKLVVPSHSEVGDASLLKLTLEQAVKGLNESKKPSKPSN
T4 sequence (P26918 28-254): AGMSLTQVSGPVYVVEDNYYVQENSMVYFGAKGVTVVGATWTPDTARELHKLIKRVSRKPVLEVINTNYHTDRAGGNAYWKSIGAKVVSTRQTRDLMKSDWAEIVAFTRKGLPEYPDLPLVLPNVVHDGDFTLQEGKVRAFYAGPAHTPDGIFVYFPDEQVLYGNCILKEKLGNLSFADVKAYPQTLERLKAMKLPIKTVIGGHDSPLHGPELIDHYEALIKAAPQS
T3 sequence (P04190 31-257): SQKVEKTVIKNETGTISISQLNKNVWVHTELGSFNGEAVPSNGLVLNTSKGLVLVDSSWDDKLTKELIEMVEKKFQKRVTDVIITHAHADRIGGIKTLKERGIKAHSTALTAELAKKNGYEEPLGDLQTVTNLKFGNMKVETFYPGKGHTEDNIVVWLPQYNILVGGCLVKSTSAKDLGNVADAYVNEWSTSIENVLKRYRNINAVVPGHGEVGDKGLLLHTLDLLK
T1 sequence (P52700 34-290): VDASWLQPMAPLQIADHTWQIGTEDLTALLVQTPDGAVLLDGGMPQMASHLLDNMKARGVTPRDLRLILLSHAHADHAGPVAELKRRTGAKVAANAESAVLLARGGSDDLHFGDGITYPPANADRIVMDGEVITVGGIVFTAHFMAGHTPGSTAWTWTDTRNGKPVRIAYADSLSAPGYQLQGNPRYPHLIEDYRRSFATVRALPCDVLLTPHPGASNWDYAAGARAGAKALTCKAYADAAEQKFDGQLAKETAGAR

Regarding `O=C(COc1ccccc1)N[C@@H](Cc1ccccc1)C(=O)C(F)(F)F` [Compound 3], the Ki in assay [1] was found to be 15 µM; in assay [2] it was 530 µM; in assay [3] it was 500 µM; in assay [4] it was 6 µM. The “mode of inhibition of the A. hydrophila enzyme” value in assay [4] is given as “inactivators”.
For `C[C@H](NC(=O)COc1ccccc1)C(=O)C(F)(F)F` [Compound 6], the Ki in assay [1] was found to be 1.5 µM; in assay [2], 300 µM; in assay [3] it was 30 µM; in assay [4] it was 44 µM. The “mode of inhibition of the A. hydrophila enzyme” value in assay [4] is recorded as “inactivators”.
With `O=C(COc1ccccc1)N[C@@H](Cc1ccccc1)[C@H](O)C(F)(F)F` [Compound 4], the values for the Ki in assay [2], in assay [3] (setting [5]) and in assay [4] were 900 µM, 1000 µM and 19 µM, respectively. The “mode of inhibition of the A. hydrophila enzyme” value in assay [4] is given as “inactivators”.
On to `O=C(COc1ccccc1)N[C@H](Cc1ccccc1)C(=O)C(F)(F)F` [Compound 2], for which, in assay [3] (setting [6]), the Ki amounted to 1000 µM.
With `C[C@@H](NC(=O)COc1ccccc1)[C@H](O)C(F)(F)F` [Compound 9], the Ki in assay [1] (read-out: Ki (inhibition constant), competitive inhibition, 30 μm nitrocefin, 30° C., 30 mM sodium cacodylate pH 6.5, 0.1 mM ZnCl2) came out at 35 µM; in assay [2], 400 µM; in assay [3] (setting [5]) it was 700 µM; in assay [4], 217 µM. In addition, the “mode of inhibition of the A. hydrophila enzyme” value in assay [4] was “inactivators”.
Consider `C[C@@H](NC(=O)COc1ccccc1)C(=O)C(F)(F)F` [Compound 7], for which the Ki worked out at 3 µM in assay [1], 500 µM in assay [2], 700 µM in assay [3] and 11 µM in assay [4]. Further, the “mode of inhibition of the A. hydrophila enzyme” value in assay [4] was “inactivators”.
Regarding `O=C(COc1ccccc1)N[C@H](Cc1ccccc1)[C@H](O)C(F)(F)F` [Compound 5], the Ki in assay [2] was found to be 60 µM; in assay [3] (setting [5]), 30 µM; in assay [4], 20 µM. The “mode of inhibition of the A. hydrophila enzyme” value in assay [4] is “inactivators”.
As to `O=C(CC(=O)C(F)(F)F)c1ccccc1` [Compound 1, reference compound], the Ki in assay [3] (setting [6]) came to 300 µM.
Regarding `C[C@H](NC(=O)COc1ccccc1)[C@H](O)C(F)(F)F` [Compound 8], the values for the Ki in assay [2] and in assay [3] (setting [5]) were 400 µM and 300 µM, respectively.

The values above are taken from patent US6043278A, “Perfluoralkyl substituted metallo-beta-lactamase inhibitors” (Isis Innovation Limited, priority 1995, dated 2000).
